“Also recorded” adds a separate entry of the source.
Experiments:
[1] = tested on: primary FSPC; assay: Edu assay of cell proliferation of primary FSPC after iMDK treatment; assay type: cell-based, human; settings: iMDK 100 nM, DDH group FSPC in vitro, compared with the DDH group
Experimental: (§1) The samples from the DDH group were divided into two portions, one of which was treated with iMDK in vitro (DDH cell samples were added with iMDK, where the iMDK was 100 nM), and the specific dosages and treatments were not restricted by reference to commonly used inhibitor treatments or mixed cultures, etc. Cells in the control group and DDH group were cultured in the same way (the difference is no iMDK treatment). Post-treatment samples were examined for the expression levels of NR3C1 and MDK and cell proliferation of primary FSPC from different groups after treatment with the MDK inhibitor (IMDK), using Western blot and the Edu assay, etc., and the results were shown in FIGS. 3E-3F. As shown in FIGS. 3E-3F, compared with the DDH group, the expression levels of NR3C1 and MDK were reduced and the cell proliferation was reduced in the control group. Compared with the DDH group, the expression levels of NR3C1 and MDK were reduced in iMDK-treated FSPC, and cell proliferation capacity was reduced.

[2] = tested on: NR3C1 and MDK expression in primary FSPC; assay: Western blot of NR3C1 and MDK expression in primary FSPC after iMDK treatment; assay type: cell-based, human; settings: iMDK 100 nM, DDH group FSPC in vitro, compared with the DDH group
Experimental: as §1

[3] = tested on: DDH rat model; assay: DDH rat model, iMDK injected into the hip joints (Micro CT, HE and safranin O-solid green staining, immunohistochemistry); assay type: in vivo, Wistar rats; settings: 5 mg/kg body weight into hip joints for 7 days
Experimental: In some embodiments, a DDH rat model is established to illustrate the results of the present disclosure. The manner of establishing the DDH rat model is as follows.
Fifteen neonatal rodents (e.g., Wistar rats, etc.) were divided into the control group, DDH group, and iMDK group. The DDH rat model was prepared by fixing the hind limbs of rats in the DDH group and the iMDK group using medical adhesive tape, etc., and keeping the hip joints internally retracted or post-extended for 10 days. […] Neonatal rats were fed by their mothers and had normal growth, development, and nutritional status. Rats in the DDH group and the iMDK group were de-taped for 30 min daily.
After 10 days, iMDK (e.g., HY-110171, etc.) was injected into the hip joints of rats in the iMDK group at a dosage of 5 mg/kg body weight for 7 days. Rats in the DDH group and control group were injected with equal volumes of saline.
It can be seen from FIG. 4 that compared with the control group, the acetabulum of the rats in the DDH group became shallow and the hip joints were dislocated.
In some embodiments, hip specimens were stained with HE (hematoxylin-eosin staining) and safranin O-solid green SO, and the results are shown in FIGS. 5A-5B. As shown in FIGS. 5A-5B, the acetabular labrum was thickened and the articular structure was disorganized in the DDH group. The iMDK group inhibited abnormal manifestations within the joint such as thickening of the acetabular labrum and joint structure disorders.

[4] = hip specimens, rank among DDH, DDH+iMDK and control groups

## O=c1oc2ccccc2cc1-c1cn2cc(Cc3ccc(F)cc3)sc2n1 [iMDK]
[1]
  cell proliferation capacity: reduced
[2]
  expression level of MDK: reduced
  expression level of NR3C1: reduced
[3]; hip specimens
  abnormal manifestations within the joint such as thickening of the acetabular labrum and joint structure disorders (HE, safranin O-solid green staining): inhibited; also recorded: inhibits the thickening of the acetabular labrum
[3]; [4]
  expression level of Ki67 (immunohistochemistry): highest in the DDH group, followed by the DDH+iMDK group
  expression level of NR3C1 (immunohistochemistry): highest in the DDH group, followed by the DDH+iMDK group
[3]; specimens 24 days after end of treatment
  hip dislocation (Micro CT): significant improvement

Reference: patent US12636277B2, “Methods for treating developmental dysplasis of hip” (WEST CHINA HOSPITAL OF SICHUAN UNIVERSITY, priority 2024, dated 2026)
